We go through eight molecules from patent US5945407A, “Methods and compositions using butyrate esters of threitol” (Vertex Pharmaceuticals, Incorporated, priority 1998, dated 1999).

Data set [1] deals with tumor and leukemia in mice. The note with it: cited from earlier work.
A short description of another data set: in vitro. The note with it: cell culture.
The next data set deals with leukemia patients. The note with it: by inducing cell differentiation; cited from earlier work.
For data set [2], the system named is Cultured Erythroleukemic Cells. The note with it: in vitro; cited from earlier work.
A short description of data set [3]: Oral bioavailability and sustenance of plasma concentrations of butyric acid in rats after oral gavage. It is filed as in vivo, rats (Sprague Dawley). The note with it: rat; for AUC: butyric acid in plasma, oral gavage, mean ± SD. How it is done:
We evaluated oral bioavailability and sustenance of plasma concentrations of butyric acid in rats receiving tetrabutyrate esters of threitol and tributyrin by oral gavage.
This assay was carried out according to the protocol described in Daniel et al., Clinca Chimica Acta., 181, pp. 255-64 (1989); Planchon et al., J. Pharm. Sci., 82, pp. 1046-48 (1993); Pouillart et al., J. Pharm Sci., 81, pp. 241-44 (1992). Each compound was tested in five to six rats (Sprague Dawley; Harlan Labs, Inc.) weighing approximately 300 grams each. In that table, data are expressed as mean ± standard deviation (range) and were compared using the unpaired Student's t-test.

The test system of another data set is fetal hemoglobin. The note with it: sickle cell anemia patients; cited from earlier work.
The conditions of data set [4]: leukemia patients; continuous infusions of sodium butyrate; cited from earlier work.
Data set [5] is described as follows: Pharmacokinetic variability of serum butyrate (standard deviation of a parameter such as Cmax or AUC divided by its mean). The class given is in vivo. An excerpt:
Pharmacokinetic variability is the measure of differences in the serum butyrate concentrations between different patients administered the same amount of butyrate esters of threitol. Pharmacokinetic variability is quantified by dividing the standard deviation for a given parameter, such as Cmax or AUC, by the mean value of that parameter, in a series of patients given dose the same dosage of butyrate ester of threitol.

Each structure is given as a SMILES string.

Consider `CCCC(=O)O` [arginine butyrate], for which the “anti-tumor and anti-leukemia effects” value in data set [1] was “anti-tumor and anti-leukemia effects”.

As for `CCCC(=O)O` [butyric acid], the MCC in “in vitro” is greater than 3 mM. The “effect in leukemia patients” value in the data set with leukemia patients is listed as “promising effects”. Also, the cell differentiation entry in data set [2] was “induces cell differentiation”.

As a reminder, the AUC is the area under the concentration-time curve, a measure of exposure. Low readings indicate low exposure, high ones high exposure. Molecule `CCCC(=O)OC[C@@H](OC(=O)CCC)[C@@H](COC(=O)CCC)OC(=O)CCC` [d-threitol tetrabutyrate ester] had an AUC in data set [3] (2.8 gm/kg) of 900 ± 260 µM·h. As to `NC(=O)NO` [hydroxyurea], in the data set on fetal hemoglobin, the fetal hemoglobin production entry is “stimulates fetal hemoglobin production” and the sickling crisis result was “reduces sickling crisis”.

Turning to `CCCC(=O)OC[C@H](OC(=O)CCC)[C@H](COC(=O)CCC)OC(=O)CCC` [l-threitol tetrabutyrate ester], in data set [3] (2.4 gm/kg), the AUC is 1200 ± 400 µM·h.

Turning to `CCCC(=O)[O-].[Na+]` [sodium butyrate], in data set [4], the “plasma half-life of butyric acid” value was 6 min. For the molecule `CCCC(=O)OC[C@H](OC(=O)CCC)[C@@H](COC(=O)CCC)OC(=O)CCC` [tetrabutyrate ester of mesothreitol], in data set [5] (in vivo), the pharmacokinetic variability is 35-40%. With `CCCC(=O)OCC(COC(=O)CCC)OC(=O)CCC` [tributyrin], in data set [3] (3.0 gm/kg), the AUC worked out at 1590 ± 930 µM·h. Moreover, in data set [3] (oral), the “oral bioavailability (to provide therapeutic plasma levels of butyric acid)” value is recorded as “orally bioavailable”. For the same molecule, the “variability of release of butyric acid in vivo” value in data set [3] (oral, tetrabutyrate esters of threitol vs tributyrin) was “more variable”. The pharmacokinetic variability in data set [5] (standard deviation / mean of a parameter such as Cmax or AUC) turned out to be 70%.
